Structures can show the parent of a compound that is named as a salt.
Experiments:
wild type human HSD17B13 = wild type human HSD17B13 (Homo sapiens (Human), UniProt Q7Z5P4); experiment: HEK_Beta-Est LCMS_IC50_Tekcel, whole-cell HEK-HSD17B13 inhibition assay, estrone production by LCMS; format: cell-based; conditions: geometric mean, HEK cells stably expressing wild type human HSD17B13, 25 μM FAC beta-estradiol, read-out: HEK_Beta-Est LCMS_IC50—Tekcel GMean IC50
How it was run: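 HEK cells expressing wild-type human HSD17B13 were preincubated with compound for 1 hour at 37° C, then the beta-estradiol/NAD+ reaction ran for 2 hours at 37° C. Estrone formed was quantified by LCMS as product area ratio and normalized to uninhibited vehicle-control wells.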

HSD17B13 enzyme = HSD17B13 enzyme (Homo sapiens (Human), UniProt Q7Z5P4); experiment: hHSD17B13 IC50 Assay (FAC beta-estradiol), purified protein enzyme activity assay with NAD(P)H-Glo luciferase readout; format: biochemical; conditions: geometric mean, 12 μM FAC beta-estradiol, 500 μM NAD+, read-out: hHSD17B13_IC50 GMean IC50
Sequence of HSD17B13 enzyme (Q7Z5P4 20-300): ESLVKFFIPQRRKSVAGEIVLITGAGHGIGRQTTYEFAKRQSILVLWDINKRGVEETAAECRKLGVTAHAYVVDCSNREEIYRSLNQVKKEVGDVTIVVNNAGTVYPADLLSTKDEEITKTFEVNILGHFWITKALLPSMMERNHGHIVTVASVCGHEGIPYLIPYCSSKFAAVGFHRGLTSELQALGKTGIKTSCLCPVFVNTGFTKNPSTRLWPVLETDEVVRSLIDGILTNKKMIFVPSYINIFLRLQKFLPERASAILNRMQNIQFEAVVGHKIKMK
How it was run: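 Purified human HSD17B13 (30 nM FAC) incubated with compound, beta-estradiol and NAD+ for 2 h at room temperature in the dark. NADH formation was detected by NAD(P)H-Glo luminescence after 1 h. RLUs normalized to uninhibited enzyme (vehicle) as zero effect.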

Sequence of wild type human HSD17B13 (Q7Z5P4 20-300): as above

Row | SMILES | IC50 (wild type human HSD17B13) | IC50 (HSD17B13 enzyme)
1 | Cc1c(-c2ccc3cn([C@H]4CC[C@H](CNC(=O)c5cc(F)c(O)c(F)c5)CC4)nc3c2)cnn1C [Example 39, N-({(1r,4r)-4-[6-(1,5-dimethyl-1H-pyrazol-4-yl)-2H-indazol-2-yl]cyclohexyl}methyl)-3,5-difluoro-4-hydroxybenzamide] | 250 nM | 5.7 nM
2 | O=C(NC[C@H]1CC[C@H](n2cc3ccc(-c4ncc(C5CC5)cn4)cc3n2)CC1)c1cc(F)c(O)c(F)c1 [Example 54, N-({(1r,4r)-4-[6-(5-cyclopropylpyrimidin-2-yl)-2H-indazol-2-yl]cyclohexyl}methyl)-3,5-difluoro-4-hydroxybenzamide] | 230 nM | 9.5 nM
3 | CN1CCN(c2ccc3cn([C@H]4CC[C@H](CNC(=O)c5cc(F)c(O)c(F)c5)CC4)nc3c2)CC1 [Example 136, 3,5-difluoro-4-hydroxy-N-({(1r,4r)-4-[6-(4-methyl-piperazin-1-yl)-2H-indazol-2-yl]cyclohexyl}methyl) benzamide, ammonium salt] | 300 nM | 15 nM
4 | O=C(NC[C@H]1CC[C@H](n2cc3ccc(-c4ncccn4)cc3n2)CC1)c1cc(F)c(O)c(F)c1F [Example 27, 2,3,5-trifluoro-4-hydroxy-N-({(1r,4r)-4-[6-(pyrimidin-2-yl)-2H-indazol-2-yl]cyclohexyl}methyl) benzamide] | 180 nM | 12 nM
5 | O=C(NC[C@H]1CC[C@H](n2cc3ccc(C(F)(F)F)cc3n2)CC1)c1cc(F)c(O)c(F)c1 [Example 137, 3,5-difluoro-4-hydroxy-N-({(1r,4r)-4-[6-(trifluoromethyl)-2H-indazol-2-yl]cyclohexyl}methyl) benzamide, ammonium salt] | 280 nM | 25 nM
6 | O=C(NC[C@]12CC[C@](c3nc(-c4ccc(C(F)(F)F)nc4)no3)(CC1)CC2)c1cc(F)c(O)cc1F [Example 195, 2,5-difluoro-4-hydroxy-N-[(4-{3-[6-(trifluoromethyl)pyridin-3-yl]-1,2,4-oxadiazol-5-yl}bicyclo [2.2.2]octan-1-yl)methyl]benzamide] | 390 nM | 16 nM
7 | Cn1cc(-c2ccc3cn([C@H]4CC[C@H](CNC(=O)c5cc(F)c(O)c(F)c5)CC4)nc3c2)c(C2CC2)n1 [Example 35, N-({(1r,4r)-4-[6-(3-cyclopropyl-1-methyl-1H-pyrazol-4-yl)-2H-indazol-2-yl]cyclohexyl}methyl)-3,5-difluoro-4-hydroxybenzamide] | 350 nM | 10 nM
8 | O=C(NC[C@H]1CC[C@H](c2nc(-c3ncc(C(F)(F)F)cn3)no2)CC1)c1cc(F)c(O)cc1F [Example 198, 2,5-difluoro-4-hydroxy-N-{[(1r,4r)-4-{3-[5-(trifluoromethyl)pyrimidin-2-yl]-1,2,4-oxadiazol-5-yl}cyclohexyl]methyl} benzamide] | 310 nM | 6.5 nM
9 | O=C(NC[C@H]1CC[C@H](n2cc3ccc(-c4ccccn4)cc3n2)CC1)c1cc(F)c(O)c(F)c1 [Example 75, 3,5-difluoro-4-hydroxy-N-({(1r,4r)-4-[6-(pyridin-2-yl)-2H-indazol-2-yl]cyclohexyl}methyl)benzamide] | 210 nM | 19 nM
10 | Cc1ccc(-c2noc([C@H]3CC[C@H](CNC(=O)c4cc(F)c(O)c(F)c4)CC3)n2)nn1 [Example 211, 3,5-difluoro-4-hydroxy-N-({(1r,4r)-4-[3-(6-methyl-pyridazin-3-yl)-1,2,4-oxadiazol-5-yl]cyclohexyl}methyl) benzamide] | 2700 nM | 15 nM
11 | O=C(NC[C@H]1CC[C@H](n2cc3cc(OCC4CC4)ncc3n2)CC1)c1cc(F)c(O)c(F)c1 [Example 32, N-({(1r,4r)-4-[5-(cyclopropyl-methoxy)-2H-pyrazolo[3,4-c]pyridin-2-yl]cyclohexyl}methyl)-3,5-difluoro-4-hydroxybenzamide, ammonium salt] | 400 nM | 25 nM
12 | Cc1ccc2cn([C@H]3CC[C@H](CNC(=O)c4cc(F)c(O)c(F)c4)CC3)nc2c1 [Example 130, 3,5-difluoro-4-hydroxy-N-{[(1r,4r)-4-(6-methyl-2H-indazol-2-yl)cyclohexyl]methyl}benzamide] | 330 nM | 27 nM
13 | O=C(NC[C@H]1CC[C@H](n2cc3ccc(-c4cnn(C5COC5)c4)cc3n2)CC1)c1cc(F)c(O)c(F)c1 [Example 45, 3,5-difluoro-4-hydroxy-N-{[(1r,4r)-4-{6-[1-(oxetan-3-yl)-1H-pyrazol-4-yl]-2H-indazol-2-yl}cyclohexyl]methyl} benzamide] | 220 nM | 5.4 nM
14 | O=C(NC[C@H]1CC[C@H](n2cc3ccccc3n2)CC1)c1cc(F)c(O)c(F)c1 [Example 22, 3,5-difluoro-4-hydroxy-N-{[(1r,4r)-4-(2H-indazol-2-yl)cyclohexyl]methyl} benzamide] | 390 nM | 20 nM
15 | O=C(NC[C@H]1CC[C@H](n2cc3ccc(Cl)cc3n2)CC1)c1cc(F)c(O)c(F)c1F [Example 25, N-{[(1r,4r)-4-(6-chloro-2H-indazol-2-yl)cylohexyl]methyl}-2,3,5-trifluoro-4-hydroxybenzamide] | 300 nM | 14 nM
16 | O=C(NC[C@H]1CC[C@H](n2cc3cc(C(F)(F)F)ccc3n2)CC1)c1cc(F)c(O)c(F)c1F [Example 182, 2,3,5-trifluoro-4-hydroxy-N-({(1r,4r)-4-[5-(trifluoromethyl)-2H-indazol-2-yl]cyclohexyl}methyl) benzamide] | 230 nM | 16 nM
17 | O=C(NC[C@]12CC[C@](c3nc(-c4ccc(C(F)(F)F)nn4)no3)(CC1)CC2)c1cc(F)c(O)c(F)c1 [Example 143, 3,5-difluoro-4-hydroxy-[(4-{3-[6-(trifluoromethyl)pyridazin-3-yl]-1,2,4-oxadiazol-5-yl}bicyclo[2.2.2]octan-1-yl)methyl]benzamide] | 180 nM | 13 nM
18 | O=C(NC[C@H]1CC[C@H](n2cc3ccc(-c4ccncc4)cc3n2)CC1)c1cc(F)c(O)c(F)c1 [Example 61, 3,5-difluoro-4-hydroxy-N-({(1r,4r)-4-[6-(pyridin-4-yl)-2H-indazol-2-yl]cyclohexyl}methyl)benzamide] | 120 nM | 4.8 nM
19 | O=C(NC[C@H]1CC[C@H](n2cc3cc(C(F)(F)F)ncc3n2)CC1)c1cc(F)c(O)c(F)c1 [Example 147, 3,5-difluoro-4-hydroxy-N-({(1r,4r)-4-[5-(trifluoromethyl)-2H-pyrazolo[3,4-c]pyridin-2-yl]cyclohexyl}methyl) benzamide, ammonium salt] | 430 nM | 17 nM
20 | N#Cc1cccc(-c2ccc3cn([C@H]4CC[C@H](CNC(=O)c5cc(F)c(O)c(F)c5)CC4)nc3c2)c1 [Example 55, N-({(1r,4r)-4-[6-(3-cyanophenyl)-2H-indazol-2-yl]cyclohexyl}methyl)-3,5-difluoro-4-hydroxybenzamide] | 230 nM | 17 nM
21 | CC(C)(O)c1cncc(-c2ccc3cn([C@H]4CC[C@H](CNC(=O)c5cc(F)c(O)c(F)c5)CC4)nc3c2)c1 [Example 59, 3,5-difluoro-4-hydroxy-N-{[(1r,4r)-4-{6-[5-(2-hydroxypropan-2-yl)pyridin-3-yl]-2H-indazol-2-yl}cyclohexyl]methyl}benzamide] | 470 nM | 11 nM
22 | O=C(NC[C@]12CC[C@](c3noc(-c4cccc(OS(=O)(=O)F)c4)n3)(CC1)CC2)c1cc(F)c(O)c(F)c1 [Example 190, 3-(3-{4-[(3,5-difluoro-4-hydroxybenzamido)methyl]bicyclo[2.2.2]octan-1-yl}-1,2,4-oxadiazol-5-yl) phenyl sulfurofluoridate] | 420 nM | 8.6 nM
23 | Cc1ccc(-c2ccc3cn([C@H]4CC[C@H](CNC(=O)c5cc(F)c(O)c(F)c5)CC4)nc3c2)nc1 [Example 57, 3,5-difluoro-4-hydroxy-N-({(1r,4r)-4-[6-(5-methylpyridin-2-yl)-2H-indazol-2-yl]cyclohexyl}methyl) benzamide] | 310 nM | 26 nM
24 | O=C(NC[C@]12CC[C@](c3nc(-c4cnc(C(F)(F)F)cn4)no3)(CC1)CC2)c1ccc(O)c(F)c1F [Example 177, 2,3-difluoro-4-hydroxy-N-[(4-{3-[5-(trifluoromethyl)pyrazin-2-yl]-1,2,4-oxadiazol-5-yl}bicyclo[2.2.2]octan-1-yl)methyl]benzamide] | 370 nM | 17 nM
25 | O=C(NC[C@H]1CC[C@H](n2cc3cc(-c4cccnc4)ncc3n2)CC1)c1cc(F)c(O)c(F)c1 [Example 199, 3,5-difluoro-4-hydroxy-N-({(1r,4r)-4-[5-(pyridin-3-yl)-2H-pyrazolo[3,4-c]pyridin-2-yl]cyclohexyl}methyl) benzamide] | 370 nM | 8.8 nM
26 | O=C(NC[C@]12CC[C@](n3cc4cc(C(F)(F)F)ccc4n3)(CC1)CC2)c1cc(F)c(O)c(F)c1F [Example 193, 2,3,5-trifluoro-4-hydroxy-N-({4-[5-(trifluoromethyl)-2H-indazol-2-yl]bicyclo [2.2.2]octan-1-yl}methyl)benzamide] | 440 nM | 22 nM
